# Measured values taken from patent US10766928B2, “Targeted conformationally-constrained kinked endosomal disrupting peptides” (priority 2012, dated 2020).
# Like-named read-outs stand apart in the source and are kept apart here. Non-standard residues stand in square brackets, D forms with d. Residues, ends and D or L forms follow the SMILES beside them. *: point of attachment. Pentanoyl(5-NH-cholesteryl) = CC(C)CCC[C@@H](C)[C@H]1CC[C@H]2[C@@H]3CC=C4C[C@@H](NCCCCC(=O)*)CC[C@]4(C)[C@H]3CC[C@]12C; Aib = CC(C)(N)C(=O)O; Ahx = NCCCCCC(=O)O; βAla = NCCC(=O)O
# What was measured:
# Jurkat lymphocytes = details: 48 h
# Description: (§1) The effects of the compounds of the invention on human Juikat leukemia cells were evaluated using flow cytometry-based assays of potency, efficacy, and toxicity. […] Analysis of flow cytometry data by non-linear regression was used to determine IC50 values for potency with the efficacy expressed as a percentage. […] Dose-dependent effects on cellular viability after 48 h at 37° C. in culture were also measured by flow cytometry.
# (§2) The # represents the compound number in accordance with Tables A, B, and C. Concentrations of compound stock solutions were determined by absorbance measurements at 280 nm. Efficacy was determined as % change in cellular fluorescence relative to the maximal response of Compound 1, defined as 100%. Potencies and efficacies in Jurkat lymphocytes were measured by flow cytometry after treatment of cells with the compounds listed and the fluorescent probe Compound 2 (2.5 μM) for 14 hours. Toxicity to this cell line was determined by flow cytometry analysis of light scattering and counterstaining with PI after treatment for 48 h at 37° C. in culture. […] N.D., not determined.
# [1] = tested on: endosomes of Jurkat lymphocytes; assay: Endosome disruption in Jurkat lymphocytes: release of carboxyfluorescein from disulfide probe Compound 2, flow cytometry; details: for Efficacy (% of max. 1): % change in cellular fluorescence relative to maximal response of Compound 1 (100%); for Efficacy (% of max. 1) / Efficacy (% of 1): Jurkat; for Efficacy (% of 1): % of the effect of compound 1, calculated span of dose-response curve, ± standard deviation
# Description: as §1, §2
# Cells were treated with fluorescent molecular probe Compound 2 (2.5 μM) and endosome disruptors for 14 hours at 37° C. Enhanced cellular fluorescence resulting from release of the pH-sensitive fluorophore Compound 3 into the cytoplasm was quantified by flow cytometry.
# Natural amino acids are represented by single letter codes. Codes for non-standard elements are as follows: Ch1: (3β-Cholest-5-en-3-yl-ammonio)pentanoyl; Ch2: (Cholester-3-yl)oxy-βAla-βAla; X: ε-Ahx; U: Aib; PB: Pacific Blue fluorophore. O: 3-(2-(2-(2-aminoethoxy)ethoxy)ethoxy)propanyl.
# [2] = Thermodynamic solubility in PBS (pH 7.4); format: physicochemical; details: phosphate buffered saline, pH 7.4, Table 3; PBS pH 7.4, 24 h at 22° C.; read-out: Solubility
# Text: Values in parentheses represent 95% confidence intervals. N.D., not determined.
# Measurements represent duplicate or more replicates, with active peptides subjected to multiple replicates. ND: not determined. The peptide was non-toxic and soluble in cell culture medium at this concentration.
# [3] = read-out: Potency, Table 2, EC50 ± standard deviation, Jurkat lymphocytes, disulfide-linked fluorescent probe (2.5 μM), 14 h
Structure (SMILES),IC50 (Jurkat lymphocytes) [µM],EC50 ([1]; 14 h) [µM],solubility thermodynamic at 24 h [2] [µM],"Efficacy (% of max. 1) ([1]; Table 1, 14 hours)","EC50 [1, 3] [µM]","Efficacy (% of 1) ([1]; Table 2, 14 h) [%]","EC50 ([1]; read-out: Potency (EC50), Table 1, Jurkat lymphocytes, probe Compound 2 (2.5 μM), 14 hours, 95% confidence interval in neighbouring cell) [µM]"
"CC(C)CCC[C@@H](C)[C@H]1CC[C@H]2[C@@H]3CC=C4C[C@@H](NCCCCC(=O)NCCC(=O)N[C@@H](CCC(=O)O)C(=O)N[C@@H](CCC(=O)O)C(=O)NCCCCCC(=O)NC(C)(C)C(=O)NC(C)(C)C(=O)NC(C)(C)C(=O)N[C@@H](Cc5c[nH]c6ccccc56)C(=O)N[C@@H](Cc5c[nH]c6ccccc56)C(=O)N[C@@H](C)C(=O)N[C@@H](Cc5ccc(O)cc5)C(=O)N[C@@H](Cc5c[nH]c6ccccc56)C(=O)N5CCC[C@H]5C(=O)N5CCC[C@H]5C(=O)N[C@H](C(N)=O)C(C)C)CC[C@]4(C)[C@H]3CC[C@]12C [Compound 11, R = BEEXUUUWWAYWPPV-CONH2] ({Pentanoyl(5-NH-cholesteryl)-βAla}-EE[Ahx][Aib][Aib][Aib]WWAYWPPV-NH2)",15,0.8,,,,,
"CC(C)CCC[C@@H](C)[C@H]1CC[C@H]2[C@@H]3CC=C4C[C@@H](NCCCCC(=O)NCCC(=O)N[C@@H](CCC(=O)O)C(=O)N[C@@H](CCC(=O)O)C(=O)NCCCCCC(=O)NCCCCCC(=O)NC(C)(C)C(=O)NC(C)(C)C(=O)NC(C)(C)C(=O)NC(C)(C)C(=O)N[C@@H](Cc5ccc(O)cc5)C(=O)N[C@@H](Cc5ccc(O)cc5)C(=O)N[C@@H](Cc5ccc(O)cc5)C(=O)N[C@@H](Cc5ccc(O)cc5)C(=O)N[C@@H](Cc5ccc(O)cc5)C(=O)N5CCC[C@H]5C(=O)N5CCC[C@H]5C(=O)N[C@H](C(=O)N[C@@H](C)C(N)=O)C(C)C)CC[C@]4(C)[C@H]3CC[C@]12C [Compound 24, R = BEEXXUUUUYYYYYPPVA-CONH2] ({Pentanoyl(5-NH-cholesteryl)-βAla}-EE[Ahx][Ahx][Aib][Aib][Aib][Aib]YYYYYPPVA-NH2)",5,0.09,,,,,
"CC(C)CCC[C@@H](C)[C@H]1CC[C@H]2[C@@H]3CC=C4C[C@@H](NCCCCC(=O)NCCC(=O)N[C@@H](CCC(=O)O)C(=O)N[C@@H](CCC(=O)O)C(=O)NCCCCCC(=O)NC(C)(C)C(=O)NC(C)(C)C(=O)NC(C)(C)C(=O)N[C@@H](Cc5c[nH]c6ccccc56)C(=O)N[C@@H](C)C(=O)N[C@@H](C)C(=O)N[C@@H](Cc5ccc(O)cc5)C(=O)N[C@@H](Cc5c[nH]c6ccccc56)C(=O)N5CCC[C@H]5C(=O)N5CCC[C@H]5C(=O)N[C@H](C(=O)N[C@@H](C)C(N)=O)C(C)C)CC[C@]4(C)[C@H]3CC[C@]12C [Compound 13, R = BEEXUUUWAAYWPPVA-CONH2] ({Pentanoyl(5-NH-cholesteryl)-βAla}-EE[Ahx][Aib][Aib][Aib]WAAYWPPVA-NH2)",16,0.7,,,,,
"CC(C)CCC[C@@H](C)[C@H]1CC[C@H]2[C@@H]3CC=C4C[C@@H](NCCCCC(=O)NCCC(=O)N[C@@H](CCC(=O)O)C(=O)N[C@@H](CCC(=O)O)C(=O)NCCCCCC(=O)NC(C)(C)C(=O)NC(C)(C)C(=O)N[C@@H](Cc5c[nH]c6ccccc56)C(=O)N[C@@H](Cc5c[nH]c6ccccc56)C(=O)N[C@@H](C)C(=O)N[C@@H](Cc5ccc(O)cc5)C(=O)N[C@@H](Cc5c[nH]c6ccccc56)C(=O)N5CCC[C@H]5C(=O)N5CCC[C@H]5C(=O)N[C@H](C(=O)N[C@@H](C)C(N)=O)C(C)C)CC[C@]4(C)[C@H]3CC[C@]12C [Compound 10, R = BEEXUUWWAYWPPVA-CONH2] ({Pentanoyl(5-NH-cholesteryl)-βAla}-EE[Ahx][Aib][Aib]WWAYWPPVA-NH2)",15,0.9,,,,,
"CC(C)CCC[C@@H](C)[C@H]1CC[C@H]2[C@@H]3CC=C4C[C@@H](NCCCCC(=O)NCCC(=O)N[C@@H](CCC(=O)O)C(=O)N[C@@H](CCC(=O)O)C(=O)NCCCCCC(=O)NC(C)(C)C(=O)NC(C)(C)C(=O)NC(C)(C)C(=O)N[C@@H](C)C(=O)N[C@@H](Cc5c[nH]c6ccccc56)C(=O)N[C@@H](C)C(=O)N[C@@H](Cc5ccc(O)cc5)C(=O)N[C@@H](Cc5c[nH]c6ccccc56)C(=O)N5CCC[C@H]5C(=O)N5CCC[C@H]5C(=O)N[C@H](C(=O)N[C@@H](C)C(N)=O)C(C)C)CC[C@]4(C)[C@H]3CC[C@]12C [Compound 12, R = BEEXUUUAWAYWPPVA-CONH2] ({Pentanoyl(5-NH-cholesteryl)-βAla}-EE[Ahx][Aib][Aib][Aib]AWAYWPPVA-NH2)",14,0.4,,,,,
"CC(C)CCC[C@@H](C)[C@H]1CC[C@H]2[C@@H]3CC=C4C[C@@H](NCCCCC(=O)NCCC(=O)N[C@@H](CCC(=O)O)C(=O)N[C@@H](CCC(=O)O)C(=O)NCCCCCC(=O)NCCCCCC(=O)N[C@@H](C)C(=O)N[C@@H](C)C(=O)N[C@@H](C)C(=O)N[C@@H](Cc5c[nH]c6ccccc56)C(=O)N[C@@H](Cc5c[nH]c6ccccc56)C(=O)N[C@@H](C)C(=O)N[C@@H](Cc5ccc(O)cc5)C(=O)N[C@@H](Cc5c[nH]c6ccccc56)C(=O)N5CCC[C@H]5C(=O)N5CCC[C@H]5C(=O)N[C@H](C(=O)N[C@@H](C)C(N)=O)C(C)C)CC[C@]4(C)[C@H]3CC[C@]12C [Compound 8, R = BEEXXAAAWWAYWPPVA-CONH2] ({Pentanoyl(5-NH-cholesteryl)-βAla}-EE[Ahx][Ahx]AAAWWAYWPPVA-NH2)",9,0.4,,,,,
"CC(C)CCC[C@@H](C)[C@H]1CC[C@H]2[C@@H]3CC=C4C[C@@H](NCCCCC(=O)NCCC(=O)N[C@@H](CCC(=O)O)C(=O)N[C@@H](CCC(=O)O)C(=O)NCCCCCC(=O)NC(C)(C)C(=O)NC(C)(C)C(=O)NC(C)(C)C(=O)N[C@@H](Cc5c[nH]c6ccccc56)C(=O)N[C@@H](Cc5c[nH]c6ccccc56)C(=O)N[C@@H](C)C(=O)N[C@@H](Cc5c[nH]c6ccccc56)C(=O)N[C@@H](Cc5c[nH]c6ccccc56)C(=O)N5CCC[C@H]5C(=O)N5CCC[C@H]5C(=O)N[C@H](C(=O)N[C@@H](C)C(N)=O)C(C)C)CC[C@]4(C)[C@H]3CC[C@]12C [Compound 19, R = BEEXUUUWWAWWPPVA-CONH2] ({Pentanoyl(5-NH-cholesteryl)-βAla}-EE[Ahx][Aib][Aib][Aib]WWAWWPPVA-NH2)",20,1,,,,,
CC(C)[C@H](NC(=O)[C@H](C)NC(=O)[C@@H]1CCCN1C(=O)[C@@H]1CCCN1C(=O)[C@H](Cc1c[nH]c2ccccc12)NC(=O)[C@H](Cc1ccc(O)cc1)NC(=O)[C@H](C)NC(=O)[C@H](Cc1c[nH]c2ccccc12)NC(=O)[C@H](Cc1c[nH]c2ccccc12)NC(=O)C(C)(C)NC(=O)C(C)(C)NC(=O)C(C)(C)NC(=O)C(C)(C)N)C(N)=O [Compound 51] (H-[Aib][Aib][Aib][Aib]WWAYWPPAV-NH2),,,48 ± 3,<50%,> 15,,
CC(C)[C@H](NC(=O)[C@@H](NC(=O)[C@@H]1CCCN1C(=O)[C@@H]1CCCN1C(=O)[C@H](Cc1c[nH]c2ccccc12)NC(=O)[C@H](Cc1ccc(O)cc1)NC(=O)[C@H](C)NC(=O)[C@H](Cc1c[nH]c2ccccc12)NC(=O)[C@H](C)NC(=O)C(C)(C)NC(=O)C(C)(C)NC(=O)C(C)(C)NC(=O)C(C)(C)N)C(C)C)C(N)=O [Compound 45] (H-[Aib][Aib][Aib][Aib]AWAYWPPVV-NH2),,,86 ± 5,<<50%,,<10,
CC(C)[C@H](NC(=O)[C@@H](NC(=O)[C@@H]1CCCN1C(=O)[C@H](C)NC(=O)[C@H](Cc1c[nH]c2ccccc12)NC(=O)[C@H](Cc1ccc(O)cc1)NC(=O)[C@H](C)NC(=O)[C@H](Cc1c[nH]c2ccccc12)NC(=O)[C@H](Cc1c[nH]c2ccccc12)NC(=O)C(C)(C)NC(=O)C(C)(C)NC(=O)C(C)(C)NC(=O)C(C)(C)N)C(C)C)C(N)=O [Compound 49] (H-[Aib][Aib][Aib][Aib]WWAYWAPVV-NH2),,,21 ± 2,45%,,35 ± 2,12
CC(C)[C@H](NC(=O)[C@@H](NC(=O)[C@@H]1CCCN1C(=O)[C@@H]1CCCN1C(=O)[C@H](Cc1c[nH]c2ccccc12)NC(=O)[C@H](C)NC(=O)[C@H](C)NC(=O)[C@H](Cc1c[nH]c2ccccc12)NC(=O)[C@H](Cc1c[nH]c2ccccc12)NC(=O)C(C)(C)NC(=O)C(C)(C)NC(=O)C(C)(C)NC(=O)C(C)(C)N)C(C)C)C(N)=O [Compound 47] (H-[Aib][Aib][Aib][Aib]WWAAWPPVV-NH2),,,63 ± 3,<<50%,> 15,,
